The target of series [1] is T1, Recombinant HCV polymerase (Hepatitis C virus genotype 1b, UniProt P26663).
T1 construct: 2.5 pmoles (0.15 μg) HCV polymerase protein
Put plainly: HCV Polymerase Inhibition Assay. As to conditions: primer/template-directed transcription, 30 minutes at 30° C. The series is classed as biochemical. Summed up:
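Recombinant genotype 1b polymerase (2.5 pmol) extended biotin-dG12 on poly(rC)300 with 1 μM GTP plus α-32P-GTP, pH 7.2, 30 min at 30 °C, 1% DMSO final; DE-filter-bound product counted. IC50 fitted from triplicate cpm, refitted with enzyme-concentration (30 nM) tight-binding equation when below 200 nM.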

In another series the test system is pestivirus. As to conditions: Baginski et al. 2000; cited from earlier work.
Series [2] deals with T2, NS5B, the RNA-dependent RNA polymerase (Hepatitis C virus genotype 1b, UniProt P26663).
T2 construct: NS5B, the RNA-dependent RNA polymerase, is also a useful viral target
T2 sequence (P26663 2420-3010): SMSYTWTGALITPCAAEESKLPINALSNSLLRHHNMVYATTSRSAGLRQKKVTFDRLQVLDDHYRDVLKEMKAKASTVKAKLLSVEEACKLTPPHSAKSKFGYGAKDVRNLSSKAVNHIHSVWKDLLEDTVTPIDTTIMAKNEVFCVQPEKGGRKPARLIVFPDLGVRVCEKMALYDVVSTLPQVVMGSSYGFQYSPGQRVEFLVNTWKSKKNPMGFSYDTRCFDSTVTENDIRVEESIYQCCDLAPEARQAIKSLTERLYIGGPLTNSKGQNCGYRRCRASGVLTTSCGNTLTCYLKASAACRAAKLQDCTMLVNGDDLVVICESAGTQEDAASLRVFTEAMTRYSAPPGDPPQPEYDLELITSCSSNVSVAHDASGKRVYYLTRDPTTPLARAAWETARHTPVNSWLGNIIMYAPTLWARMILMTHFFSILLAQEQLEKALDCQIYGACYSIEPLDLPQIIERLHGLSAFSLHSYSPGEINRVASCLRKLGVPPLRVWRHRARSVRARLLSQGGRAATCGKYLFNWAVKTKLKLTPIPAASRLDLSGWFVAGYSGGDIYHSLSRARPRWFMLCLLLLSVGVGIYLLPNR
As to conditions: Ishii et al. 1999; cited from earlier work.

Structures are written as SMILES. Read-outs that look alike come from different tables or passages of the source. Bounds are passed on as bounds.

T1 sequence (P26663 2420-3010): as above

The melting point is the temperature of the solid-liquid transition. By IC50 is commonly meant the concentration that inhibits the measured activity by half. Compound `O=C1CC(=O)OC(CCc2ccccc2)(C2CCCC2)C1` (stereo not shown) [Example 35, 6-Cyclopentyl-6-phenethyl-dihydro-pyran-2,4-dione] had a melting point of 96 to 99 °C. In addition, the IC50 in series [1] (category symbol) fell in the range of 10 to 50 µM.

Consider `CCN(C1=C(O)CC(CCc2ccc(O)cc2)(C2CCCC2)OC1=O)c1ccccc1` (stereo not shown) [Example 160, Cyclopentyl-(ethyl-phenyl-amino)-hydroxy-[2-(4-hydroxy-phenyl)-ethyl]-5,6-dihydro-pyran-2-one], for which the melting point lay in the range of 83 to 85 °C. Moreover, in series [1] (category symbol), the IC50 lay in the range of 1 to 10 µM.

In turn, `CCCN(C1=C(O)CC(C2CCCC2)(C2CCCC2)OC1=O)c1cccc(NS(=O)(=O)c2ccccn2)c1` [Example 184, Pyridine-2-sulfonic acid {3-[(6,6-dicyclopentyl-4-hydroxy-2-oxo-5,6-dihydro-2H-pyran-3-yl)-propyl-amino]-phenyl}-amide] yielded a melting point of 105 to 107 °C. Also, the IC50 in series [1] (category symbol) was 10 to 50 µM.

Consider `O=C1OC(CCc2ccc(O)cc2)(C2CCCC2)CC(O)=C1N(c1ccccc1)c1ccccc1` (stereo not shown) [Example 161, Cyclopentyl-diphenylamino-hydroxy-[2-(4-hydroxy-phenyl)-ethyl]-5,6-dihydro-pyran-2-one], for which the melting point lay within 93 to 94 °C. In series [1] (category symbol), the IC50 fell in the range of 1 to 10 µM.

`CCN(C1=C(O)C[C@@](CCc2ccc(O)cc2)(C2CCCC2)OC1=O)c1ccccc1` [Example 158]: the melting point fell in the range of 90 to 92 °C.

`Cc1cc(SC2=C(O)CC(C3CCCC3)(C3CCCC3)OC2=O)c(C(C)(C)C)cc1OCCO` [Example 181, 3-[2-tert-butyl-4-(2-hydroxy-ethoxy)-5-methyl-phenylsulfanyl]-6,6-dicyclopentyl-4-hydroxy-5,6-dihydro-pyran-2-one]: the melting point lay in the range of 100 to 102 °C. The IC50 in series [1] (read-out: IC50(μM) Category) came to 36 µM.

Consider `CCCN(C1=C(O)CC(CCc2ccc(O)cc2)(C2CCCC2)OC1=O)c1ccccc1` (stereo not shown) [Example 159, 6-Cyclopentyl-4-hydroxy-6-[2-(4-hydroxy-phenyl)-ethyl]-3-(phenyl-propyl-amino)-5,6-dihydro-pyran-2-one], for which the melting point is 95 °C. In series [1] (category symbol), the IC50 is 1 to 10 µM.

`CCCN(C1=C(O)CC(C2CCCC2)(C2CCCC2)OC1=O)c1cccc(NS(=O)(=O)c2cccs2)c1` [Example 186, Thiophene-2-sulfonic acid {3-[(6,6-dicyclopentyl-4-hydroxy-2-oxo-5,6-dihydro-2H-pyran-3-yl)-propyl-amino]-phenyl}-amide] came in with a melting point of 92 to 95 °C. Besides, the IC50 in series [1] (category symbol) lay in the range of 10 to 50 µM.

Regarding `Cc1cc(SC2=C(O)CC(C3CCCC3)(C3CCCC3)OC2=O)c(C(C)(C)C)cc1OS(=O)(=O)c1cn(C)cn1` [Example 182, 1-methyl-1H-imidazole-4-sulfonic acid 5-tert-butyl-4-(6,6-dicyclopentyl-4-hydroxy-2-oxo-5,6-dihydro-2H-pyran-3-ylsulfanyl)-2-methyl-phenyl ester], the melting point was 143 to 145 °C. Moreover, the IC50 in series [1] (category symbol) was 10 to 50 µM.

Turning to `CCCN(CCC)CCSc1nnc2c(n1)[nH]c1ccccc12` [VP32947, 3-[((2-dipropylamino)ethyl)thio]-5H-1,2,4-triazino[5,6-b]indole], the “inhibitor of pestivirus replication” value in the series on pestivirus is “potent inhibitor”.

Consider `Cc1cc(SC2=C(O)CC(CCc3ccc(O)cc3)(C3CCCC3)OC2=O)c(C(C)(C)C)cc1OS(=O)(=O)N1CCN(C)CC1` (stereo not shown) [Example 147], for which the melting point lay in the range of 163 to 165 °C. Also, the IC50 in series [1] (category symbol) lay in the range of 1 to 10 µM.

`Cc1cc(SC2=C(O)CC(C3CCCC3)(C3CCCC3)OC2=O)c(C(C)(C)C)cc1CO` [Example 180, 3-(2-tert-butyl-4-hydroxymethyl-5-methyl-phenylsulfanyl)-6,6-dicyclopentyl-4-hydroxy-5,6-dihydro-pyran-2-one] had a melting point of 158 to 160 °C. In addition, the IC50 in series [1] (read-out: IC50(μM) Category) was 15 µM.

Compound `Cc1cc(SC2=C(O)CC(C3CCCC3)(C3CCCC3)OC2=O)c(C(C)(C)C)cc1N` [Example 179, 3-(4-Amino-2-tert-butyl-5-methyl-phenylsulfanyl)-6,6-dicyclopentyl-4-hydroxy-5,6-dihydro-pyran-2-one] gave a melting point of 163 to 165 °C. The IC50 in series [1] (read-out: IC50(μM) Category) is 15.5 µM.

`CCCN(C1=C(O)C[C@@](CCc2cccc(O)c2)(C2CCCC2)OC1=O)c1ccccc1` [Example 155, 6-(S)-Cyclopentyl-4-hydroxy-6-[2-(3-hydroxy-phenyl)-ethyl]-3-(phenyl-propyl-amino)-5,6-dihydro-pyran-2-one] gave a melting point of 74 to 76 °C. For the same compound, the IC50 in series [1] (category symbol) lay in the range of 1 to 10 µM.

Regarding `Cc1cc(SC2=C(O)CC(CCc3ccc(O)cc3)(C3CCCC3)OC2=O)c(C(C)(C)C)cc1NS(=O)(=O)c1ccccc1` (racemic) [Example 141, (+/−)N-(5-tert-butyl-{6-cyclopentyl-4-hydroxy-6-[2-(4-hydroxy-phenyl)-ethyl]-2-oxo-5,6-dihydro-2H-pyran-3-ylsulfanyl}-2-methyl-phenyl)-benzenesulfonamide], the melting point lay in the range of 125 to 127 °C. In series [1] (category symbol), the IC50 was in the range of 1 to 10 µM.

In turn, `Cc1cc(SC2=C(O)CC(CCc3ccc(O)cc3)(C3CCCC3)OC2=O)c(C(C)(C)C)cc1OCCO` (stereo not shown) [Example 148, 3-[2-tert-butyl-4-(2-hydroxy-ethoxy)-5-methyl-phenylsulfanyl]-6-cyclopentyl-4-hydroxy-6-[2-(4-hydroxy-phenyl)-ethyl]-5,6-dihydro-pyran-2-one] displayed a melting point of 113 to 115 °C. Moreover, the IC50 in series [1] (category symbol) lay in the range of 1 to 10 µM.

For the compound `O=C(O)CP(=O)(O)O` [phosphonoacetic acid, reference compound], the “Inhibition of RdRp activity” value in series [2] is “Inhibition of RdRp activity”.

Turning to `CC(=O)Nc1cc(C(C)(C)C)c(SC2=C(O)CC(CCc3ccc(O)cc3)(C3CCCCC3)OC2=O)cc1C` (stereo not shown) [Example 142, N-(5-tert-butyl4-{6-cyclohexyl-4-hydroxy-6-[2-(4-hydroxy-phenyl)-ethyl]-2-oxo-5,6-dihydro-2H-pyran-3-ylsulfanyl)-2-methyl-phenyl)-acetamide], the melting point is over 154 °C. Besides, the IC50 in series [1] (category symbol) was over 50 µM.

With `Cc1cc(SC2=C(O)CC(CCc3ccc(O)cc3)(C3CCCCC3)OC2=O)c(C(C)(C)C)cc1N` (stereo not shown) [Example 143, 3-(4-Amino-2-tert-butyl-5-methyl-phenylsulfanyl)-6-cyclohexyl-4-hydroxy-6-[2-(4-hydroxy-phenyl)-ethyl]-5,6-dihydro-pyran-2-one], the melting point was over 133 °C. The IC50 in series [1] (category symbol) was in the range of 1 to 10 µM.

With `Nc1ccn([C@@H]2CS[C@H](COP(=O)(O)OP(=O)(O)OP(=O)(O)O)O2)c(=O)n1` [3TC; lamivudine triphosphate], the “Inhibition of RdRp activity” value in series [2] was “Inhibition of RdRp activity”.

Compound `CCNS(=O)(=O)Oc1cc(C(C)(C)C)c(SC2=C(O)CC(CCc3cccc(O)c3)(C3CCCC3)OC2=O)cc1C` (stereo not shown) [Example 149, Ethyl-sulfamic acid 5-tert-butyl-4-{6-cyclopentyl-4-hydroxy-6-[2-(3-hydroxy-phenyl)-ethyl]-2-oxo-5,6-dihydro-2H-pyran-3-ylsulfanyl}-2-methyl-phenyl ester] had a melting point of 69 to 72 °C. Moreover, the IC50 in series [1] (category symbol) was over 50 µM.

For the compound `CCCN(C1=C(O)CC(C2CCCC2)(C2CCCC2)OC1=O)c1cccc(N)c1` [Example 187, 3-[(3-Amino-phenyl)-propyl-amino]-6,6-dicyclopentyl-4-hydroxy-5,6-dihydro-pyran-2-one], the melting point fell in the range of 173 to 175 °C. For the same compound, in series [1] (category symbol), the IC50 was over 50 µM.

Consider `COc1cc(OC)c(CCC2(C3CCCC3)CC(O)=C(Sc3nc[nH]n3)C(=O)O2)cc1Cl` (stereo not shown) [Example 93, 6-[2-(5-Chloro-2,4-dimethoxyphenyl)ethyl]-6-cyclopentyl-4-hydroxy-3-(1H-1,2,4-triazol-3-ylthio)-5,6-dihydro-2H-puran-2-one], for which the IC50 in series [1] (category symbol) was under 1 µM.

On to `Cc1cc(SC2=C(O)CC(CCc3ccc(O)cc3)(C3CCCC3)OC2=O)c(C(C)(C)C)cc1C(N)=O` (stereo not shown) [Example 146, 5-tert-butyl-4-{6-Cyclopentyl-4-hydroxy-6-[2-(4-hydroxy-phenyl)-ethyl]-2-oxo-5,6-dihydro-2H-pyran-3-ylsulfanyl}-2-methyl-benzamide], for which, in series [1] (category symbol), the IC50 fell in the range of 1 to 10 µM.

For `O=C1C=C(O)CC(CCc2ccc(OCc3ccc(C(F)(F)F)nc3)cc2)(C2CCCC2)O1` (stereo not shown) [Example 52, 6-Cyclopentyl-6-[2-(4-{[6-(trifluoromethyl)pyridin-3-yl]methoxy}phenyl)ethyl]4-hydroxy-5,6-dihydro-2H-pyran-2-one], the IC50 in series [1] (category symbol) was in the range of 10 to 50 µM.

Values taken from patent publication US7115658B2 (priority 2002, dated 2006).
